Results on five compounds are retold here after patent US9309187B2, “EP2 receptor agonists” (TAKEDA GMBH, priority 2012, dated 2016).

One test concerns the target T1, human EP2 receptor (Homo sapiens, UniProt P43116).
T1 construct: purchased Millipore
The test can be described thus: EP2 binding assay (PGE2 displacement). The following applies: recombinant human EP2 membranes, 1 nanoM [3H]-PGE2; reported as range bins; read-out: EP2 binding (PGE2 displacement) pIC50 (-log IC50) (converted). As to the method: Method for Measuring Inhibition of PGE2 Binding to the Human Prostanoid Receptor EP2:
Human EP2 receptor equilibrium competition binding assays were performed according to Abramovitz et al. (M. Abramovitz et al. 2000, Biochimica et Biophysica Acta 1483: 285-293) in a final incubation volume of 100 microL in 50 milliM Bis-Tris, pH6.0 in 96-well plates. Radiolabelled Prostaglandin E2 (PGE2) (1 nanoM [^3H]-PGE2 purchased from Perkin Elmer) was added to the assay as competitive ligand. Test compounds stored as Dimethylsulfoxide (DMSO) stock solutions were added to the assay in serial dilutions in assay buffer while keeping the final DMSO concentration equal in each sample. The reaction was initiated by addition of membrane proteins harbouring human EP2 receptor (ChemiSCREEN™ membrane preparation recombinant human EP2 prostanoid receptor that was purchased by Millipore). Total binding was determined in the absence of test compound or PGE2 and non-specific binding was determined in the presence of 1 microM PGE2. Incubations were conducted for 60 minutes at room temperature until equilibrium was reached and terminated by filtration through GF/B filter (Perkin Elmer) prewetted with 0.3% PEI solution. Unbound radiolabelled PGE2 was removed by 8 wash cycles with the same buffer under ice-cold conditions and the filters containing the residual radioactivity were dried for 60 minutes at 60° C. In order to measure the filter bound radioactivity, 40 microL microscint (scintillation liquid) was added to each filter and the chemiluminescence was determined by TopCount-NTX™. The specific binding was calculated by subtracting non-specific binding from each sample. Percent inhibition by test compounds was calculated based on specific binding without test compound. Each sample was measured in triplicates per experiment and for the calculation of the pIC50 at least 2 independent experiments were performed. Determination of half maximal inhibiting concentration (IC50) was performed with GraphPad Prism Software.
The numbers of the compounds correspond to the examples numbers.
EP2 Binding Assay (PGE2 Displacement): pIC50 Values

For test [1], the system named is total leukocyte and neutrophil counts in bronchoalveolar lavage fluid. As to the kind of experiment: In vivo assay: LPS-induced pulmonary inflammation model in rats. The arrangement: species or system Sprague Dawley rats. To be noted: Rattus norvegicus, po; p.o. 1 h prior to LPS aerosol; BAL cell counts 4 h after LPS. On the procedure: In Vivo Assay: LPS-Induced Pulmonary Inflammation Model in Rats
Exposure of rats to aerosolised lipopolysaccharide (LPS) causes a pulmonary mainly neutrophilic inflammation, which can be assessed by bronchoalveolar lavage (BAL). LPS-induced pulmonary inflammation models are robust and are commonly used for the evaluation of test compounds modulating the immediate immune response. Selective EP2 agonists are administered per oral 1 h prior nose-only LPS challenge in rats. The anti-inflammatory activity of the selective EP2 agonists is assessed based on pulmonary total leukocyte and neutrophil counts in the bronchoalveolar lavage fluid 4 h after LPS exposure.
Male Sprague Dawley rats weighing 250-300 g were used. Rats were delivered 1 week prior to the experiments and hadfree access to water and food.
The test compound was mixed with 1.33% polyethylenglycol 400 (PEG400, Merck, Darmstadt, Germany) and subsequently suspended in 2% methocel solution (hypromellose, Sigma, Steinheim, Germany) containing Antifoam C Emulsion (Sigma, Steinheim, Germany, 0.1 mL/15 mL) using a mixing device (ULTRA-TURRAX T8 basic, VDI12, VWR International GmbH). The aimed doses were prepared by dilution series from the stock suspension, which was prepared for the administration of the highest dose in each experiment.
The administered volume of the compound suspension was 10 mL/kg. On day of the experiment the rat body weights were documented to calculate the volume to be administered. LPS challenged and unchallenged control animals received compound-free vehicle solution as placebo. Test compounds and vehicle were administered by oral gavage 1 h prior to LPS challenge.
Conscious and restrained animals were connected to a nose-only exposure system (CR equipment SA, Tannay, Switzerland) and were exposed to the LPS aerosol for 30 min. The LPS-containing aerosol was generated using a compressed air driven medication nebulizer device (Pari LC Sprint Star, Pari GmbH, Starnberg, Germany). The LPS solution (E. coli, Serotype 055B5, Sigma-Aldrich, 1 mg/ml diluted in PBS) was prepared 30 minutes in advance. The aerosol was dispersed and transported to the exposure tower by a sheath air flow of 6001/h. All rats except negative controls were exposed to LPS.
4 hours after LPS challenge, animals were anesthetised by isoflurane and scarified by cervical dislocation. BALs were performed. For the BAL the trachea was exposed and cannulated, followed by gently lavaging the lungs two times in situ with 4 ml PBS buffer supplemented with 0.5% Bovine Serum Albumin (Serve, Darmstadt, Germany).
Determination of total leukocyte and neutrophil counts in BALF was performed with an automated leukocyte differentiation system (XT-2000iV, Sysmex, Norderstedt, Germany).
The baseline correction was done for each sample according to the formula: baseline-corrected cell count value=cell count−median (negative control group)
Suppression of LPS-induced total cell and neutrophil influx into the lungs was calculated in % using the medians of the cell counts of each treatment group in relation to the control groups according to the formula: % effect=(Y−K)/K*100 • With defining: • Y=median of the baseline-corrected compound treated group • K=median of the baseline-corrected vehicle treated group
Statistical analysis was performed on the primary cell count data using One-Way ANOVA and Dunnett's Multiple Comparison test vs. positive control.

A word on the IC50: it is the midpoint of a concentration-inhibition curve. Broadly, the ED50 is the dose at which the effect has come halfway, by size or by number of responders. Read a high ED50 as a need for a large dose.

T1 sequence (P43116 whole entry): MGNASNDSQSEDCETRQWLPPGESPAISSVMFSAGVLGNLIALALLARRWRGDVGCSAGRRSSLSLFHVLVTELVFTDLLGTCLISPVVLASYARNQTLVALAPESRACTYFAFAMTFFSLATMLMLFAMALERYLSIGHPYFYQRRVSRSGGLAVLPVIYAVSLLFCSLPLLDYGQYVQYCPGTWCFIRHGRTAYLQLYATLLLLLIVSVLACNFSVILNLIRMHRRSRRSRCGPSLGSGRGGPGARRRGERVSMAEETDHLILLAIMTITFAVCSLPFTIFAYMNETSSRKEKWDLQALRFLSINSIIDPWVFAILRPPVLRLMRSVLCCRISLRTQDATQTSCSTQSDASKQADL

Regarding `O=C(O)/C=C/c1cccc(NC(=O)c2cc(-c3ccccc3)cc3ccccc23)c1` [Example 1, (2E)-3-(3-{[(3-phenylnaphthalen-1-yl)carbonyl]amino}phenyl)prop-2-enoic acid], the IC50 at human EP2 receptor is 1.26 to 10 nM. Also, the ED50 in test [1] was 0.1 to 2 mg/kg.
The matching figures for `O=C(O)/C=C/c1ccc(Cl)c(NC(=O)c2cc(-c3ccccc3)cc3ccccc23)c1` [Example 3, (2E)-3-(4-chloro-3-{[(3-phenylnaphthalen-1-yl)carbonyl]amino}phenyl)prop-2-enoic acid]: 1.26 to 10 nM and 0.1 to 2 mg/kg.
The matching figures for `O=C(O)/C=C/c1ccc(F)c(NC(=O)c2cc(-c3cccc(F)c3)cc3ccccc23)c1` [Example 10, (2E)-3-{3-[({3-[3-fluorophenyl]naphthalen-1-yl}carbonyl)amino]-4fluorophenyl}prop-2-enoic acid]: 1.26 to 10 nM and 0.1 to 2 mg/kg.
The matching figures for `O=C(O)/C=C/c1ccc(F)c(NC(=O)c2cc(-c3ccccc3F)cc3ccccc23)c1` [Example 9, (2E)-3-{3-[({3-[2-fluorophenyl]naphthalen-1-yl}carbonyl)amino]-4fluorophenyl}prop-2-enoic acid]: 1.26 to 10 nM and 0.1 to 2 mg/kg.
As to `O=C(O)/C=C/c1ccc(F)c(NC(=O)c2cc(-c3ccccc3)cc3ccccc23)c1` [Example 2, (2E)-3-(4-fluoro-3-{[(3-phenylnaphthalen-1-yl)carbonyl]amino}phenyl)prop-2-enoic acid], at human EP2 receptor, the IC50 was 1.26 to 10 nM. This compound returned an ED50 in test [1] of 0.1 to 2 mg/kg.
